Data reported in patent US20150105252A1, “SUBSTITUTED PYRAZOLES AS HERBICIDES” (E I DU PONT DE NEMOURS AND COMPANY, priority 2013, published 2015).

Experiments:
bluegrass = assay: Test D preemergence; format: in vivo, Poa annua; settings: for Plant response rating, Bluegrass: Preemergence, scale 0 to 100
Method in brief: (§1)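 Visual 0-100 rating (100 = complete control) against untreated plants, made 14 to 21 days after treatment in a controlled environment. Compounds, formulated with surfactant in non-phytotoxic solvent, were applied either to seeds just sown in silt loam or to 1- to 4-leaf plants (2 to 18 cm) grown in peat-based medium.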

blackgrass = assay: Test D preemergence; format: in vivo, Alopecurus myosuroides; settings: for Plant response rating, Blackgrass: Preemergence, scale 0 to 100
Method in brief: as §1

galium [1] = assay: Test D preemergence; format: in vivo, Galium aparine; settings: for Plant response rating, Galium: Preemergence, scale 0 to 100
Method in brief: as §1

foxtail, green [2] = assay: Test D preemergence; format: in vivo, Setaria viridis; settings: for Plant response rating, Foxtail, Green: Preemergence, scale 0 to 100
Method in brief: as §1

kochia = assay: Test D preemergence; format: in vivo, Kochia scoparia; settings: for Plant response rating, Kochia: Preemergence, scale 0 to 100
Method in brief: as §1

oilseed rape = assay: Test D preemergence; format: in vivo, Brassica napus; settings: for Plant response rating, Oilseed Rape: Preemergence, scale 0 to 100
Method in brief: as §1

chamomile [3] = assay: Test D preemergence; format: in vivo, Matricaria inodora; settings: for Plant response rating, Chamomile: Preemergence, scale 0 to 100
Method in brief: as §1

wheat, spring = assay: Test D preemergence; format: in vivo, Triticum aestivum; settings: for Plant response rating, Wheat, Spring: Preemergence, scale 0 to 100
Method in brief: as §1

wheat, winter = assay: Test D preemergence; format: in vivo, Triticum aestivum; settings: for Plant response rating, Wheat, Winter: Preemergence, scale 0 to 100
Method in brief: as §1

mustard, wild = assay: Test D preemergence; format: in vivo, Sinapis arvensis; settings: Preemergence, scale 0 to 100
Method in brief: as §1

oat, wild = assay: Test D preemergence; format: in vivo, Avena fatua; settings: for Plant response rating, Oat, Wild: Preemergence, scale 0 to 100
Method in brief: as §1

canarygrass = assay: Test D postemergence; format: in vivo, Phalaris minor; settings: scale 0 to 100
Method in brief: as §1

galium [4] = assay: Test D postemergence; format: in vivo, Galium aparine; settings: scale 0 to 100
Method in brief: as §1

field violet = assay: Test D postemergence; format: in vivo, Viola arvensis; settings: scale 0 to 100
Method in brief: as §1

foxtail, green [5] = assay: Test D postemergence; format: in vivo, Setaria viridis; settings: scale 0 to 100
Method in brief: as §1

lambsquarters = assay: Test D postemergence; format: in vivo, Chenopodium album; settings: scale 0 to 100
Method in brief: as §1

chamomile [6] = assay: Test D postemergence; format: in vivo, Matricaria inodora; settings: scale 0 to 100
Method in brief: as §1

speedwell = assay: Test D postemergence; format: in vivo, Veronica persica; settings: scale 0 to 100
Method in brief: as §1

barley, spring = assay: Test D postemergence; format: in vivo, Hordeum vulgare; settings: scale 0 to 100
Method in brief: as §1

barley, winter = assay: Test D postemergence; format: in vivo, Hordeum vulgare; settings: scale 0 to 100
Method in brief: as §1

[7] = 16 g ai/ha, taken as preemergence

CCc1cc(C(=O)NOC(C)C)nn1Cc1cccc(OC(F)(F)F)c1 [Compound 70]
85: Lambsquarters plant response rating (lambsquarters; Postemergence, 31 g ai/ha)
80: Galium plant response rating (galium [4]; Postemergence, 250 g ai/ha) | Plant response rating, Lambsquarters (lambsquarters; Postemergence, 16 g ai/ha)
70: Galium plant response rating (galium [4]; postemergence, 62 g ai/ha)
75: Galium plant response rating (galium [4]; Postemergence, 125 g ai/ha) | Field Violet plant response rating (field violet; Postemergence, 125 g ai/ha) | Field Violet plant response rating (field violet; Postemergence, 250 g ai/ha)
10: Plant response rating, Bluegrass (bluegrass; 250 g ai/ha) | Plant response rating, Blackgrass (blackgrass; 125 g ai/ha) | Plant response rating, Galium (galium [1]; 62 g ai/ha) | Plant response rating, Kochia (kochia; 31 g ai/ha) | Plant response rating, Oilseed Rape (oilseed rape; 125 g ai/ha) | Plant response rating, Wheat, Spring (wheat, spring; 125 g ai/ha) | Plant response rating, Wheat, Winter (wheat, winter; 250 g ai/ha) | Canarygrass plant response rating (canarygrass; Postemergence, 250 g ai/ha) | Plant response rating, Chamomile (chamomile [6]; Postemergence, 16 g ai/ha)
0: Plant response rating (scale 0 to 100), Bluegrass (bluegrass; [7]) | Plant response rating, Bluegrass (bluegrass; 31 g ai/ha) | Plant response rating, Bluegrass (bluegrass; 62 g ai/ha) | Plant response rating, Bluegrass (bluegrass; 125 g ai/ha) | Plant response rating (scale 0 to 100), Blackgrass (blackgrass; [7]) | Plant response rating, Blackgrass (blackgrass; 31 g ai/ha) | Plant response rating (scale 0 to 100), Galium (galium [1]; [7]) | Plant response rating, Galium (galium [1]; 31 g ai/ha) | Plant response rating (scale 0 to 100), Foxtail, Green (foxtail, green [2]; [7]) | Plant response rating, Foxtail, Green (foxtail, green [2]; 31 g ai/ha) | Plant response rating, Foxtail, Green (foxtail, green [2]; 62 g ai/ha) | Plant response rating (scale 0 to 100), Kochia (kochia; [7]) | Plant response rating (scale 0 to 100), Oilseed Rape (oilseed rape; [7]) | Plant response rating, Oilseed Rape (oilseed rape; 31 g ai/ha) | Plant response rating, Oilseed Rape (oilseed rape; 62 g ai/ha) | Plant response rating (scale 0 to 100), Chamomile (chamomile [3]; [7]) | Plant response rating, Chamomile (chamomile [3]; 31 g ai/ha) | Plant response rating, Chamomile (chamomile [3]; 62 g ai/ha) | Plant response rating (scale 0 to 100), Wheat, Spring (wheat, spring; [7]) | Plant response rating, Wheat, Spring (wheat, spring; 31 g ai/ha) | Plant response rating, Wheat, Spring (wheat, spring; 62 g ai/ha) | Plant response rating (scale 0 to 100), Wheat, Winter (wheat, winter; [7]) | Plant response rating, Wheat, Winter (wheat, winter; 31 g ai/ha) | Plant response rating, Wheat, Winter (wheat, winter; 62 g ai/ha) | Plant response rating, Wheat, Winter (wheat, winter; 125 g ai/ha) | Plant response rating, Mustard, Wild (mustard, wild; 31 g ai/ha) | Plant response rating (scale 0 to 100), Oat, Wild (oat, wild; [7]) | Plant response rating, Oat, Wild (oat, wild; 31 g ai/ha) | Plant response rating, Oat, Wild (oat, wild; 62 g ai/ha) | Plant response rating, Canarygrass (canarygrass; Postemergence, 16 g ai/ha) | Canarygrass plant response rating (canarygrass; Postemergence, 31 g ai/ha) | Canarygrass plant response rating (canarygrass; Postemergence, 125 g ai/ha) | Canarygrass plant response rating (canarygrass; postemergence, 62 g ai/ha) | Plant response rating, Foxtail, Green (foxtail, green [5]; Postemergence, 16 g ai/ha) | Foxtail, Green plant response rating (foxtail, green [5]; postemergence, 62 g ai/ha) | Barley, Spring plant response rating (barley, spring; Postemergence, 16 g ai/ha) | Barley, Spring plant response rating (barley, spring; Postemergence, 31 g ai/ha) | Barley, Spring plant response rating (barley, spring; postemergence, 62 g ai/ha) | Barley, Winter plant response rating (barley, winter; Postemergence, 16 g ai/ha) | Barley, Winter plant response rating (barley, winter; Postemergence, 31 g ai/ha)
40: Plant response rating, Galium (galium [1]; 250 g ai/ha) | Plant response rating, Oilseed Rape (oilseed rape; 250 g ai/ha) | Plant response rating, Chamomile (chamomile [3]; 250 g ai/ha) | Field Violet plant response rating (field violet; Postemergence, 31 g ai/ha) | Field Violet plant response rating (field violet; postemergence, 62 g ai/ha) | Chamomile plant response rating (chamomile [6]; Postemergence, 125 g ai/ha)
30: Plant response rating, Blackgrass (blackgrass; 250 g ai/ha) | Plant response rating, Kochia (kochia; 125 g ai/ha) | Plant response rating, Oat, Wild (oat, wild; 250 g ai/ha) | Foxtail, Green plant response rating (foxtail, green [5]; Postemergence, 125 g ai/ha) | Chamomile plant response rating (chamomile [6]; Postemergence, 31 g ai/ha) | Chamomile plant response rating (chamomile [6]; postemergence, 62 g ai/ha)
100: Plant response rating, Foxtail, Green (foxtail, green [2]; 250 g ai/ha) | Plant response rating, Mustard, Wild (mustard, wild; 62 g ai/ha) | Plant response rating, Mustard, Wild (mustard, wild; 125 g ai/ha) | Plant response rating, Mustard, Wild (mustard, wild; 250 g ai/ha) | Plant response rating, Speedwell (speedwell; Postemergence, 16 g ai/ha) | Speedwell plant response rating (speedwell; Postemergence, 31 g ai/ha) | Speedwell plant response rating (speedwell; Postemergence, 125 g ai/ha) | Speedwell plant response rating (speedwell; Postemergence, 250 g ai/ha) | Speedwell plant response rating (speedwell; postemergence, 62 g ai/ha)
5: Plant response rating, Blackgrass (blackgrass; 62 g ai/ha) | Plant response rating, Oat, Wild (oat, wild; 125 g ai/ha) | Barley, Spring plant response rating (barley, spring; Postemergence, 125 g ai/ha) | Barley, Spring plant response rating (barley, spring; Postemergence, 250 g ai/ha) | Barley, Winter plant response rating (barley, winter; Postemergence, 125 g ai/ha) | Barley, Winter plant response rating (barley, winter; Postemergence, 250 g ai/ha) | Barley, Winter plant response rating (barley, winter; postemergence, 62 g ai/ha)
20: Plant response rating, Foxtail, Green (foxtail, green [2]; 125 g ai/ha) | Plant response rating, Kochia (kochia; 62 g ai/ha) | Plant response rating, Wheat, Spring (wheat, spring; 250 g ai/ha) | Plant response rating, Field Violet (field violet; Postemergence, 16 g ai/ha)
15: Plant response rating, Chamomile (chamomile [3]; 125 g ai/ha) | Foxtail, Green plant response rating (foxtail, green [5]; Postemergence, 31 g ai/ha)
98: Lambsquarters plant response rating (lambsquarters; Postemergence, 125 g ai/ha) | Lambsquarters plant response rating (lambsquarters; Postemergence, 250 g ai/ha) | Lambsquarters plant response rating (lambsquarters; postemergence, 62 g ai/ha)
50: Plant response rating, Kochia (kochia; 250 g ai/ha) | Plant response rating, Galium (galium [4]; Postemergence, 16 g ai/ha) | Chamomile plant response rating (chamomile [6]; Postemergence, 250 g ai/ha)
60: Galium plant response rating (galium [4]; Postemergence, 31 g ai/ha) | Foxtail, Green plant response rating (foxtail, green [5]; Postemergence, 250 g ai/ha)
